This note sets out measurements from ChEMBL document CHEMBL3593244, “Design, synthesis and preliminary bioactivity evaluations of substituted quinoline hydroxamic acid derivatives as novel histone deacetylase (HDAC) inhibitors” (Bioorg Med Chem, 2015).

Test [1] deals with Histone deacetylase (HDAC1 and HDAC2) (Homo sapiens, UniProt Q13547+Q92769). The test is described as follows: Inhibition of HDAC1/2 in human HeLa cell nuclear extracts preincubated for 5 mins followed by substrate addition measured after 0.5 hrs by Color de Lys assay. It counts as cell-based.
Test [2] relates to K562. Briefly: cells. The format is functional, cell-based. To be noted: Homo sapiens, K562, 48 h.
Description: Cytotoxicity against human K562 cells assessed as inhibition of cell proliferation after 48 hrs by MTT assay
Test [3] deals with PC-3. Briefly: cells. The format is functional, cell-based. To be noted: Homo sapiens, PC-3, 48 h.
Description: Cytotoxicity against human PC3 cells assessed as inhibition of cell proliferation after 48 hrs by MTT assay
Test [4] deals with A549. The test is described as follows: cells. To be noted: Homo sapiens, A549, 48 h. The format is functional, cell-based.
Description: Cytotoxicity against human A549 cells assessed as inhibition of cell proliferation after 48 hrs by MTT assay
The test system of test [5] is MDA-MB-231. Briefly: Cytotoxicity against human MDA-MB-231 cells assessed as inhibition of cell proliferation after 48 hrs by MTT assay. It counts as functional, cell-based. To be noted: MDA-MB-231, 48 h. Background: Tetrazolium dyes change colour on reduction, which living cells bring about.

As a reminder, the IC50 is the point on the concentration scale where inhibition reaches its midpoint. Turning to `O=C(CCCCCC(=O)NCc1ccc2ccccc2n1)NO`, the concentration for half-maximal inhibition (IC50) in test [1] came to 266 nM.

Take `O=C(CCCCCCCC(=O)NCc1cc(C(=O)NCc2ccccc2)c2ccccc2n1)NO`: the IC50 in test [1] is over 1000 nM.

For the compound `O=C(CCCC(=O)NCc1cc(C(=O)NCc2ccccc2)c2ccccc2n1)NO`, the IC50 in test [1] was over 1000 nM.

On to `CNC(=O)c1cc(CNC(=O)CCCCCC(=O)NO)nc2ccccc12`, for which the 50% inhibitory concentration (IC50) in test [1] is recorded as 642 nM.

`O=C(CCCCCC(=O)NCc1cc(C(=O)NCc2ccccc2)c2ccccc2n1)NO` gave a concentration for half-maximal inhibition (IC50) in test [1] of 399 nM.

As to `O=C(CCCCCC(=O)NCc1ccc2cc(Br)ccc2n1)NO`, the IC50 in test [2] was 4860 nM; in test [3], 9260 nM; in test [1] it was 85 nM; in test [4], 3890 nM; in test [5], 900 nM.

Take `O=C(CCCCCC(=O)NCc1cc(C(=O)Nc2ccccc2)c2ccccc2n1)NO`: in test [1], the IC50 was determined as 301 nM.

Compound `O=C(CCCCCCC(=O)NCc1cc(C(=O)Nc2ccccc2)c2ccccc2n1)NO` gave an IC50 in test [1] of 562 nM.

In test [1], `O=C(CCCCCCC(=O)NCc1ccc2ccccc2n1)NO` yielded an IC50 of 678 nM.

In test [1], `O=C(CCCCCC(=O)NCc1cc(C(=O)NCc2ccccc2)c2cc(-c3ccccc3)ccc2n1)NO` came in with an IC50 of 341 nM.

Regarding `O=C(CCCCCC(=O)NCc1ccc2cc(I)ccc2n1)NO`, the 50% inhibitory concentration (IC50) in test [2] came to 2450 nM; in test [3] it was 8480 nM; in test [1], 132 nM; in test [4], 2580 nM; in test [5], 1410 nM.

In test [1], `O=C(CCCCC(=O)NCc1ccc2ccccc2n1)NO` gave an IC50 of over 1000 nM.

For `O=C(CCCC(=O)NCc1ccc2ccccc2n1)NO`, in test [1], the IC50 is listed as over 1000 nM.

`O=C(CCCCCC(=O)NCc1ccc2cc(-c3ccccc3)ccc2n1)NO` displayed an IC50 in test [1] of 152 nM.

Consider `O=C(CCCCCCC(=O)NCc1cc(C(=O)Nc2ccccc2)c2cc(Br)ccc2n1)NO`, for which, in test [1], the IC50 is over 1000 nM.

In turn, `CCCCNC(=O)c1cc(CNC(=O)CCCCCC(=O)NO)nc2ccccc12` came in with an IC50 in test [1] of 444 nM.

`O=C(CCCCCC(=O)NCc1ccc2cc(F)ccc2n1)NO` had an IC50 in test [1] of 155 nM.

`O=C(CCCCCC(=O)NCc1cc(C(=O)Nc2ccccc2)c2cc(Br)ccc2n1)NO`: the IC50 in test [1] is recorded as 196 nM.

Turning to `O=C(CCCCCCC(=O)NCc1cc(C(=O)NCc2ccccc2)c2ccccc2n1)NO`, the IC50 in test [1] amounted to 780 nM.

Consider `O=C(CCCCCCCC(=O)NCc1cc(C(=O)NCc2ccccc2)c2cc(Br)ccc2n1)NO`, for which the IC50 in test [1] is on record as over 1000 nM.

As for `CNC(=O)c1cc(CNC(=O)CCCCCCC(=O)NO)nc2ccccc12`, in test [1], the IC50 is over 1000 nM.

`O=C(CCCCC(=O)NCc1cc(C(=O)NCc2ccccc2)c2ccccc2n1)NO` displayed an IC50 in test [1] of over 1000 nM.

For the compound `O=C(CCCCCC(=O)NCc1ccc2cc(Cl)ccc2n1)NO`, the half-maximal inhibitory concentration (IC50) in test [2] was 3390 nM; in test [3], 9130 nM; in test [1], 120 nM; in test [4] it was 2710 nM; in test [5], 1840 nM.

In test [1], `O=C(CCCCCC(=O)NCc1cc(C(=O)NCc2ccccc2)c2cc(Br)ccc2n1)NO` yielded a concentration for half-maximal inhibition (IC50) of 343 nM.

As to `O=C(CCCCCCC(=O)NCc1ccc2cc(Br)ccc2n1)NO`, the 50% inhibitory concentration (IC50) in test [1] is reported as 146 nM.

As to `O=C(CCCCCCC(=O)NCc1cc(C(=O)NCc2ccccc2)c2cc(Br)ccc2n1)NO`, the IC50 in test [1] is on record as over 1000 nM.

On to `CCCCNC(=O)c1cc(CNC(=O)CCCCCCC(=O)NO)nc2ccccc12`, for which, in test [1], the IC50 is reported as over 1000 nM.
